# Data reported in the supplement of paper PMC10307832.
# Columns and labels:
# Assay in all cases: relative viability (nuclei count vs DMSO), 5 days (fraction); higher = more cells survive
# [1] = compound: CC(C)CCN1c2nc(Nc3cc(F)c(O)c(F)c3)ncc2N(C)C(=O)C1C [BI-D1870] + CS(=O)(=O)CCNCc1ccc(-c2ccc3ncnc(Nc4ccc(OCc5cccc(F)c5)c(Cl)c4)c3c2)o1 [Lapatinib] (partner 2 µM)
# Procedure, shortened: (§1)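 Dosing by pin tool came one day after lung cancer cell lines were seeded in 1536-well plates, using either one drug or a fixed anchor-drug dose plus five library-drug doses (not always all listed) in √10 steps. After 5 days, nuclei were counted on 4× images. Relative viability is treated-well nuclei count divided by vehicle-well nuclei count, and values are medians of duplicate plates.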
# [2] = compound: O=c1ncccn1[C@@H]1O[C@H](CO)[C@@H](O)[C@H]1O [Zebularine] + Cc1nc(NC(=O)N2CCC[C@H]2C(N)=O)sc1-c1ccnc(C(C)(C)C(F)(F)F)c1 [Alpelisib] (partner 2 µM)
# Procedure, shortened: as §1
# [3] = compound: CC(C)CCN1c2nc(Nc3cc(F)c(O)c(F)c3)ncc2N(C)C(=O)C1C [BI-D1870] + CS(=O)(=O)N1CCN(Cc2cc3nc(-c4cccc5[nH]ncc45)nc(N4CCOCC4)c3s2)CC1 [Pictilisib] (partner 1 µM)
# Procedure, shortened: as §1
# [4] = compound: O=c1ncccn1[C@@H]1O[C@H](CO)[C@@H](O)[C@H]1O [Zebularine] + CS(=O)(=O)CCNCc1ccc(-c2ccc3ncnc(Nc4ccc(OCc5cccc(F)c5)c(Cl)c4)c3c2)o1 [Lapatinib] (partner 2 µM)
# Procedure, shortened: as §1
Cell Line,relative viability ([1]; first compound 0.04 µM),relative viability ([1]; first compound 0.1265 µM),relative viability ([1]; first compound 0.4 µM),relative viability ([1]; first compound 1.265 µM),relative viability ([1]; first compound 4 µM),relative viability ([2]; first compound 1 µM),relative viability ([2]; first compound 3.162 µM),relative viability ([2]; first compound 10 µM),relative viability ([2]; first compound 31.62 µM),relative viability ([2]; first compound 100 µM),relative viability ([3]; first compound 0.04 µM),relative viability ([3]; first compound 0.1265 µM),relative viability ([3]; first compound 0.4 µM),relative viability ([3]; first compound 1.265 µM),relative viability ([3]; first compound 4 µM),relative viability ([4]; first compound 1 µM),relative viability ([4]; first compound 3.162 µM),relative viability ([4]; first compound 10 µM),relative viability ([4]; first compound 31.62 µM),relative viability ([4]; first compound 100 µM)
HCC-44,1.05,1.04,1.02,0.961,1.1,0.818,0.938,0.463,0.639,0.265,0.651,0.498,0.617,0.768,0.443,1.07,1.07,0.566,0.951,0.454
HCC-827,0.224,0.179,0.194,0.172,0.231,1.02,1.11,0.84,0.673,0.305,0.96,1.05,1.08,1.14,0.91,0.209,0.175,0.192,0.188,0.191
NCI-H2347,1.12,0.977,0.745,0.921,1.03,1.02,0.867,0.686,0.694,0.474,0.797,0.466,0.662,0.649,0.44,1.07,0.783,0.816,0.628,0.45
PC-14,0.36,0.301,0.343,0.395,0.269,1.04,0.953,0.232,0.111,0.163,0.769,0.688,0.557,0.537,0.438,0.448,0.296,0.201,0.163,0.126
NCI-H1651,0.828,0.666,0.769,0.892,0.647,0.875,1.05,–,0.769,0.527,0.549,0.423,0.566,0.516,0.551,0.917,1.07,–,0.94,0.515
HARA,0.973,0.722,0.842,0.998,0.74,1.01,0.804,–,0.818,0.572,0.597,0.314,0.458,0.518,0.366,0.731,0.906,–,0.896,1.02
NCI-H1650,0.822,0.715,0.721,0.753,0.738,–,–,–,–,–,0.632,0.484,0.527,0.533,0.558,0.878,0.618,–,1.08,0.86
NCI-H1395,1.13,0.895,0.989,1.13,0.79,1.32,0.941,0.82,0.785,0.598,0.684,0.588,0.587,0.673,0.507,1.27,1.04,0.799,0.702,0.507
